Experimental data published in ChEMBL document CHEMBL3885861, “Open TG-GATES”.

Species: Rattus norvegicus
Assay: Open TG-GATES - Regimen: Daily Repeat
Format: toxicity, organism-based, Sprague-Dawley
Parameters: regimen Daily Repeat, gender Male, age 6 weeks
Conditions: in vivo, po, route gavage; for Ht / Lym / MCHC / Mono / Neu / Plat / RBC / Ret / WBC / Bas / Eos / Fbg / Hb / PT / MCV: tissue Blood; for KIDNEY_L / KIDNEY_R / KIDNEY_TOTAL: tissue Kidney; for ALP / ALT / AST / BUN / CRE / Ca / DBIL / IP / K / Na / PL / RALB / TBIL / TC / TG / TP / gamma-GTP / LDH: tissue Plasma; for LIVER: tissue Liver
[1] = 120 mg/kg, 72 h, dose level Middle, time 3 day
[2] = 120 mg/kg, […], dose level Middle, time 7 day
[3] = 120 mg/kg, […], dose level Middle, time 14 day
[4] = 120 mg/kg, […], dose level Middle, time 28 day
[5] = 400 mg/kg, 72 h, dose level High, time 3 day
[6] = 400 mg/kg, […], dose level High, time 7 day
[7] = 400 mg/kg, […], dose level High, time 14 day
[8] = 400 mg/kg, […], dose level High, time 28 day

CCC(C)(C)C(=O)O[C@H]1C[C@@H](C)C=C2C=C[C@H](C)[C@H](CC[C@@H]3C[C@@H](O)CC(=O)O3)[C@H]21 [SIMVASTATIN]
Ht [1]: 41%
Lym [1]: 80.2%
MCHC [1]: 33.2%
Mono [1]: 8.4%
Neu [1]: 10.2%
Plat [1]: 119.9 x10_4/uL
RBC [1]: 644.2 x10_4/ul
Ret [1]: 5.5%
WBC [1]: 81 x10_2/uL
KIDNEY_L [1]: 1 g
KIDNEY_R [1]: 1 g
KIDNEY_TOTAL [1]: 2 g
ALP [1]: 885.4 IU/L
ALT [1]: 42 IU/L
AST [1]: 62.2 IU/L
BUN [1]: 16.4 mg/dL
CRE [1]: 0.6 mg/dL
Ca [1]: 10.8 mg/dL
DBIL [1]: 0.012 mg/dL
IP [1]: 7.3 mg/dL
K [1]: 4.4 meq/L
Na [1]: 139.6 meq/L
PL [1]: 131.2 mg/dL
RALB [1]: 3.9 g/dL
TBIL [1]: 0.3 mg/dL
TC [1]: 81.6 mg/dL
TG [1]: 48.2 mg/dL
TP [1]: 5.6 g/dL
gamma-GTP [1]: 1.4 IU/L
TERMINAL_BW [2]: 245.2 g
TERMINAL_BW [3]: 292.4 g
TERMINAL_BW [4]: 375.8 g
Bas [2]: 0%
Eos [2]: 1%
Fbg [2]: 222.8 mg/dL
Hb [2]: 13.3 g/dL
Ht [2]: 40%
Lym [2]: 83.8%
MCHC [2]: 33.1%
Mono [2]: 7.4%
Neu [2]: 8.4%
PT [2]: 11 s
Plat [2]: 123.4 x10_4/uL
RBC [2]: 630.6 x10_4/ul
Ret [2]: 3.3%
WBC [2]: 106.6 x10_2/uL
Bas [3]: 0%
Eos [3]: 0.8%
Fbg [3]: 223.6 mg/dL
Hb [3]: 14.2 g/dL
Ht [3]: 42.5%
Lym [3]: 80%
MCHC [3]: 33.3%
Mono [3]: 5.2%
Neu [3]: 14.4%
Plat [3]: 121.2 x10_4/uL
RBC [3]: 698 x10_4/ul
Ret [3]: 6%
Bas [4]: 0%
Eos [4]: 1%
Fbg [4]: 238.8 mg/dL
Hb [4]: 15 g/dL
Ht [4]: 45.4%
Lym [4]: 83.4%
MCHC [4]: 33.1%
MCV [4]: 58.3 fL
Mono [4]: 5.2%
PT [4]: 11.8 s
Plat [4]: 116.8 x10_4/uL
RBC [4]: 778.6 x10_4/ul
Ret [4]: 2.4%
WBC [4]: 114.5 x10_2/uL
KIDNEY_L [2]: 1.1 g
KIDNEY_R [2]: 1.1 g
KIDNEY_TOTAL [2]: 2.2 g
KIDNEY_L [3]: 1.2 g
KIDNEY_R [3]: 1.2 g
KIDNEY_TOTAL [3]: 2.4 g
KIDNEY_L [4]: 1.4 g
KIDNEY_R [4]: 1.4 g
KIDNEY_TOTAL [4]: 2.7 g
LIVER [2]: 13.1 g
LIVER [3]: 14.5 g
LIVER [4]: 17.7 g
ALP [2]: 848 IU/L
ALT [2]: 38.2 IU/L
AST [2]: 67.4 IU/L
BUN [2]: 21.4 mg/dL
CRE [2]: 0.6 mg/dL
DBIL [2]: 0.012 mg/dL
IP [2]: 7.1 mg/dL
K [2]: 4.8 meq/L
LDH [2]: 124.8 IU/L
Na [2]: 141.2 meq/L
PL [2]: 140.8 mg/dL
RALB [2]: 3.9 g/dL
TBIL [2]: 0.3 mg/dL
TC [2]: 74.6 mg/dL
TG [2]: 78.8 mg/dL
TP [2]: 5.8 g/dL
gamma-GTP [2]: 0.8 IU/L
ALP [3]: 763.4 IU/L
ALT [3]: 37.6 IU/L
AST [3]: 67 IU/L
BUN [3]: 20.6 mg/dL
CRE [3]: 0.6 mg/dL
Ca [3]: 11 mg/dL
DBIL [3]: 0.01 mg/dL
IP [3]: 7.2 mg/dL
K [3]: 4.3 meq/L
LDH [3]: 110.6 IU/L
Na [3]: 140.4 meq/L
PL [3]: 150.4 mg/dL
RALB [3]: 4 g/dL
TBIL [3]: 0.4 mg/dL
TC [3]: 76.2 mg/dL
TG [3]: 119.6 mg/dL
TP [3]: 5.9 g/dL
gamma-GTP [3]: 1.2 IU/L
ALP [4]: 716 IU/L
ALT [4]: 36.6 IU/L
AST [4]: 59.4 IU/L
BUN [4]: 19.8 mg/dL
CRE [4]: 0.7 mg/dL
Ca [4]: 10.9 mg/dL
DBIL [4]: 0.016 mg/dL
IP [4]: 6.4 mg/dL
K [4]: 4.2 meq/L
LDH [4]: 107.8 IU/L
Na [4]: 142.6 meq/L
PL [4]: 139.6 mg/dL
RALB [4]: 4 g/dL
TBIL [4]: 0.3 mg/dL
TC [4]: 71.4 mg/dL
TG [4]: 128.2 mg/dL
TP [4]: 6.2 g/dL
gamma-GTP [4]: 2.2 IU/L
TERMINAL_BW [5]: 181.9 g
Bas [5]: 0%
Eos [5]: 1%
Fbg [5]: 202.2 mg/dL
Hb [5]: 15.1 g/dL
Ht [5]: 45.5%
Lym [5]: 72.4%
MCHC [5]: 33.3%
Mono [5]: 5.8%
Neu [5]: 20.6%
PT [5]: 15.6 s
Plat [5]: 126.8 x10_4/uL
RBC [5]: 699.4 x10_4/ul
Ret [5]: 2.6%
WBC [5]: 96.5 x10_2/uL
KIDNEY_L [5]: 0.9 g
KIDNEY_R [5]: 0.9 g
KIDNEY_TOTAL [5]: 1.8 g
LIVER [5]: 9.1 g
ALP [5]: 613.8 IU/L
ALT [5]: 173.4 IU/L
AST [5]: 134 IU/L
BUN [5]: 15 mg/dL
CRE [5]: 0.5 mg/dL
Ca [5]: 10 mg/dL
DBIL [5]: 0.012 mg/dL
IP [5]: 6.9 mg/dL
K [5]: 5 meq/L
LDH [5]: 155.8 IU/L
Na [5]: 137.2 meq/L
PL [5]: 82.2 mg/dL
RALB [5]: 4 g/dL
TBIL [5]: 0.4 mg/dL
TC [5]: 51.4 mg/dL
TG [5]: 17.6 mg/dL
TP [5]: 5.3 g/dL
gamma-GTP [5]: 1.6 IU/L
TERMINAL_BW [6]: 208 g
TERMINAL_BW [7]: 268.6 g
TERMINAL_BW [8]: 365.2 g
Bas [6]: 0%
Eos [6]: 1%
Fbg [6]: 212.2 mg/dL
Hb [6]: 13.7 g/dL
Ht [6]: 41.7%
Lym [6]: 78%
MCHC [6]: 32.8%
Mono [6]: 7.5%
Neu [6]: 13.5%
PT [6]: 12.8 s
Plat [6]: 138.7 x10_4/uL
RBC [6]: 658.2 x10_4/ul
Ret [6]: 3.4%
WBC [6]: 98.8 x10_2/uL
Bas [7]: 0%
Eos [7]: 1%
Fbg [7]: 255.2 mg/dL
Hb [7]: 13.5 g/dL
Ht [7]: 40.7%
Lym [7]: 72.8%
MCHC [7]: 33.1%
Mono [7]: 9.5%
Neu [7]: 17.2%
PT [7]: 12.1 s
Plat [7]: 148 x10_4/uL
RBC [7]: 673.5 x10_4/ul
Ret [7]: 8.1%
WBC [7]: 114.1 x10_2/uL
Bas [8]: 0%
Eos [8]: 1%
Fbg [8]: 234.2 mg/dL
Hb [8]: 14.6 g/dL
Ht [8]: 44%
Lym [8]: 80.2%
MCHC [8]: 33.1%
MCV [8]: 58.5 fL
Mono [8]: 5.6%
Neu [8]: 13.8%
PT [8]: 13 s
Plat [8]: 130.1 x10_4/uL
RBC [8]: 753.2 x10_4/ul
Ret [8]: 3%
WBC [8]: 117.8 x10_2/uL
KIDNEY_L [6]: 1 g
KIDNEY_R [6]: 1 g
KIDNEY_TOTAL [6]: 1.9 g
KIDNEY_L [7]: 1.2 g
KIDNEY_R [7]: 1.2 g
KIDNEY_TOTAL [7]: 2.4 g
KIDNEY_L [8]: 1.3 g
KIDNEY_R [8]: 1.4 g
KIDNEY_TOTAL [8]: 2.7 g
LIVER [6]: 12.1 g
LIVER [7]: 16 g
LIVER [8]: 20.6 g
ALP [6]: 693.8 IU/L
ALT [6]: 96.2 IU/L
AST [6]: 100.2 IU/L
BUN [6]: 21 mg/dL
CRE [6]: 0.6 mg/dL
Ca [6]: 11.3 mg/dL
DBIL [6]: 0.025 mg/dL
IP [6]: 6.2 mg/dL
K [6]: 4.7 meq/L
LDH [6]: 136 IU/L
Na [6]: 141.2 meq/L
PL [6]: 116.8 mg/dL
RALB [6]: 4.1 g/dL
TBIL [6]: 0.3 mg/dL
TC [6]: 67.5 mg/dL
TG [6]: 36.8 mg/dL
TP [6]: 5.9 g/dL
gamma-GTP [6]: 1.2 IU/L
ALP [7]: 717.5 IU/L
ALT [7]: 100.5 IU/L
AST [7]: 275.8 IU/L
BUN [7]: 19.2 mg/dL
CRE [7]: 0.6 mg/dL
Ca [7]: 10.8 mg/dL
DBIL [7]: 0.0075 mg/dL
IP [7]: 6.7 mg/dL
K [7]: 4.2 meq/L
LDH [7]: 121.2 IU/L
Na [7]: 140 meq/L
PL [7]: 115 mg/dL
RALB [7]: 3.7 g/dL
TBIL [7]: 0.3 mg/dL
TC [7]: 66.5 mg/dL
TG [7]: 60.5 mg/dL
TP [7]: 5.5 g/dL
gamma-GTP [7]: 2.2 IU/L
ALP [8]: 691.8 IU/L
ALT [8]: 55 IU/L
AST [8]: 71.6 IU/L
BUN [8]: 23.6 mg/dL
CRE [8]: 0.6 mg/dL
Ca [8]: 10.9 mg/dL
DBIL [8]: 0.018 mg/dL
IP [8]: 5.6 mg/dL
K [8]: 4.4 meq/L
LDH [8]: 132 IU/L
Na [8]: 142.6 meq/L
PL [8]: 116.2 mg/dL
RALB [8]: 4.1 g/dL
TBIL [8]: 0.3 mg/dL
TC [8]: 57.6 mg/dL
TG [8]: 85.4 mg/dL
TP [8]: 6.1 g/dL
gamma-GTP [8]: 1.2 IU/L
